Reference: patent US20250206721A1, “Prostaglandin Receptor EP2 Antagonists, Derivatives, and Uses Related Thereto” (Emory University, priority 2019, published 2025)
≈ marks a conversion by molar mass, not a printed value. Marks after values point to notes of the source that are not given here.

Columns and labels:
human EP2 receptor = target: T1, human EP2 receptor (Homo sapiens, UniProt P43116); test: Cell-based cAMP TR-FRET assay, Schild KB on EP2; conditions: for EP2 KB / Kb: Schild KB, agonist PGE2, antagonist concentration 1 μM, C6G cells expressing human EP2; for fold less EP2 potency in comparison to 2a: comparator 2a
T1 construct: expressed in transfected cells
T1 sequence (P43116 whole entry): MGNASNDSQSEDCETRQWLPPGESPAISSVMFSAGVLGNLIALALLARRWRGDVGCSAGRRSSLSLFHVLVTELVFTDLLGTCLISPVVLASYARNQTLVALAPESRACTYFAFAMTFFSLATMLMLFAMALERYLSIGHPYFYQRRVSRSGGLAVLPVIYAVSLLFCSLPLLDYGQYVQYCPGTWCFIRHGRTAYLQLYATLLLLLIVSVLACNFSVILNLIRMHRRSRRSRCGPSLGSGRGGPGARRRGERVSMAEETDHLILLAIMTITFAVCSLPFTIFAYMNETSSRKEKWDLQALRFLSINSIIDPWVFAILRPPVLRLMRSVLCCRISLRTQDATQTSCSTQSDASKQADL

[1] = pH 2
[2] = Kinetic aqueous solubility in PBS by nephelometry; conditions: for Aqueous Solubility: PBS buffer (pH 7.4) with 1% DMSO, nephelometry

Structure (SMILES): Cc1cc(C)nc(Nc2ncc(C(=O)NCC(=O)c3c(C)[nH]c4ccccc34)cn2)c1 [Compound 24h, 2-((4,6-Dimethylpyridin-2-yl)amino)-N-(2-(2-methyl-1H-indol-3-yl)-2-oxoethyl)pyrimidine-5-carboxamide]
- EP2 KB (human EP2 receptor): eliminated the potency

Structure (SMILES): COc1ccccc1-c1ccc(C(=O)NCCc2c(C)[nH]c3ccccc23)cc1F [Compound 14b, 2-Fluoro-2′-methoxy-N-(2-(2-methyl-1H-indol-3-yl)ethyl)-[1,1′-biphenyl]-4-carboxamide]
- Solubility in SGF [1]: 10^d μM
- Aqueous Solubility [2]: 10 µM

Structure (SMILES): CC(=O)c1ccc(Nc2ncc(C(=O)NCCc3c(C)[nH]c4ccccc34)cn2)nc1 [Compound 20l, 2-((5-Acetylpyridin-2-yl)amino)-N-(2-(2-methyl-1H-indol-3-yl)ethyl)pyrimidine-5-carboxamide]
- Kb (human EP2 receptor): 166 nM
- fold reduced EP2 potency in comparison to 20b (human EP2 receptor; comparator 20b): 20 fold

Structure (SMILES): Cc1cc(C)nc(Nc2ncc(C(=O)NCCc3c(C)nn4ccccc34)cn2)c1 [Compound 24g, 2-((4,6-Dimethylpyridin-2-yl)amino)-N-(2-(2-methylpyrazolo[1,5-a]pyridin-3-yl)ethyl)pyrimidi-ne-5-carboxamide]
- Aqueous Solubility [2]: 70 µM

Structure (SMILES): CC(=O)Nc1ccc(-c2ccc(C(=O)NCCc3c(C)[nH]c4ccccc34)nc2)cc1 [Compound 11c, 5-(4-Acetamidophenyl)-N-(2-(2-methyl-1H-indol-3-yl)ethyl)picolinamide]
- Solubility in SGF [1]: 10 µM (≈ 4.12 µg/mL)
- Aqueous Solubility [2]: 10 µM

Structure (SMILES): COc1ccccc1-c1ccc(C(=O)NCCc2c(C)[nH]c3ccccc23)cc1 [Compound 14c, 2′-Methoxy-N-(2-(2-methyl-1H-indol-3-yl)ethyl)-[1,1′-biphenyl]-4-carboxamide]
- Aqueous Solubility [2]: 5 µM

Structure (SMILES): Cc1[nH]c2ccccc2c1CCNC(=O)c1ccc(N2CCOCC2)nc1 [Compound 2b, N-(2-(2-Methyl-1H-indol-3-yl)ethyl)-6-morpholinonicotinamide]
- Kb (human EP2 receptor): 118 nM
- fold less EP2 potency in comparison to 2a (human EP2 receptor): 4 fold
- Aqueous Solubility [2]: 206 µM
- fold increased aqueous solubility ([2]; comparator 2a): 3 fold

Structure (SMILES): CC(=O)Nc1ccc(-c2ccc(C(=O)NCCc3c(C)[nH]c4ccccc34)cn2)cc1 [Compound 8f, 6-(4-Acetamidophenyl)-N-(2-(2-methyl-1H-indol-3-yl)ethyl)nicotinamide]
- Solubility in SGF [1]: >100 µM
- Aqueous Solubility [2]: 25 µM

Structure (SMILES): Cc1[nH]c2ccccc2c1CCNC(=O)c1cnc(Nc2cccc(C#N)n2)nc1 [Compound 20g, 2-((6-Cyanopyridin-2-yl)amino)-N-(2-(2-methyl-1H-indol-3-yl)ethyl)pyrimidine-5-carboxamide]
- Aqueous Solubility [2]: 13 µM

Structure (SMILES): Cc1[nH]c2ccccc2c1CCNC(=O)c1ccc(-c2ccccc2F)nc1 [Compound 8e, 6-(2-Fluorophenyl)-N-(2-(2-methyl-1H-indol-3-yl)ethyl)nicotinamide]
- fold less EP2 potency in comparison to 2a (human EP2 receptor): 2 fold
- fold less EP2 potency in comparison to 8c (human EP2 receptor; comparator 8c (14b vs. 14c or 8c)): 4 fold
- Solubility in SGF [1]: >100 µM
- Aqueous Solubility [2]: 22 µM

Structure (SMILES): COc1cccc(-c2ccc(C(=O)NCCc3c(C)[nH]c4ccccc34)cn2)c1 [Compound 8b, 6-(3-Methoxyphenyl)-N-(2-(2-methyl-1H-indol-3-yl)ethyl)nicotinamide]
- Solubility in SGF [1]: >100 µM
- Aqueous Solubility [2]: 13 µM

Structure (SMILES): Cc1ccc(Nc2ncc(C(=O)NCCc3c(C)[nH]c4ccccc34)cn2)c(C)n1 [Compound 20r, 2-((2,6-Dimethylpyridin-3-yl)amino)-N-(2-(2-methyl-1H-indol-3-yl)ethyl)pyrimidine-5-carboxamide]
- fold reduced EP2 potency (human EP2 receptor; 20f vs. 20c, 20n vs. 20e, comparator of 20g and 20r not stated): 10 fold
- Kb (human EP2 receptor): 88.1 nM
- Aqueous Solubility [2]: 100 µM

Structure (SMILES): Cc1[nH]c2ccccc2c1CCNC(=O)c1ccc(-c2ccccc2)nc1 [Compound 8a, N-(2-(2-Methyl-1H-indol-3-yl)ethyl)-6-phenylnicotinamide]
- Solubility in SGF [1]: >100 µM
- Aqueous Solubility [2]: 25 µM

Structure (SMILES): Cc1[nH]c2ccccc2c1CCNC(=O)c1cnc(Nc2cccc(C(C)(C)C)n2)nc1 [Compound 20n, 2-((6-(tert-Butyl)pyridin-2-yl)amino)-N-(2-(2-methyl-1H-indol-3-yl)ethyl)pyrimidine-5-carboxamide]
- Aqueous Solubility [2]: 25 µM

Structure (SMILES): COc1cc(OC)cc(-c2ccc(C(=O)NCCc3c(C)[nH]c4ccccc34)nc2)c1 [Compound 11b, 5-(3,5-Dimethoxyphenyl)-N-(2-(2-methyl-1H-indol-3-yl)ethyl)picolinamide]
- fold less potent than equivalent derivative (human EP2 receptor; 11a vs 8b, 11b vs 8g, 11c vs 8f): 11 fold
- Solubility in SGF [1]: 10 µM (≈ 4.15 µg/mL)
- Aqueous Solubility [2]: 10 µM

Structure (SMILES): Cc1cc(C)nc(Nc2ncc(C(=O)NCCc3c(C(F)(F)F)[nH]c4ccccc34)cn2)c1 [Compound 24f, 2-((4,6-Dimethylpyridin-2-yl)amino)-N-(2-(2-(trifluoromethyl)-1H-indol-3-yl)ethyl)pyrimidine-5-carboxamide]
- Kb (human EP2 receptor): 66 nM
- fold reduced EP2 potency in comparison to 20o (human EP2 receptor; comparator 20o): 8 fold
- Aqueous Solubility [2]: 45 µM

Structure (SMILES): Cc1[nH]c2ccccc2c1CCNC(=O)c1cnc(Nc2cccc(O)n2)nc1 [Compound 20i, 2-((6-Hydroxypyridin-2-yl)amino)-N-(2-(2-methyl-1H-indol-3-yl)ethyl)pyrimidine-5-carboxamide]
- Aqueous Solubility [2]: 10 µM

Structure (SMILES): COc1ccc2[nH]c(C)c(CCNC(=O)c3cnc(Nc4cc(C)cc(C)n4)nc3)c2c1 [Compound 24e, 2-((4,6-Dimethylpyridin-2-yl)amino)-N-(2-(5-methoxy-2-methyl-1H-indol-3-yl)ethyl)pyrimidine-5-carboxamide]
- Aqueous Solubility [2]: 20 µM

Structure (SMILES): CCC(C)(O)c1cccc(Nc2ncc(C(=O)NCCc3c(C)[nH]c4ccccc34)cn2)n1 (stereo not shown) [Compound 20m, 2-((6-(2-Hydroxybutan-2-yl)pyridin-2-yl)amino)-N-(2-(2-methyl-1H-indol-3-yl)ethyl) pyrimidine-5-carboxamide]
- Aqueous Solubility [2]: 6 µM

Structure (SMILES): Cc1[nH]c2ccccc2c1CCNC(=O)c1cnc(Nc2cc(C(C)(C)C)ccn2)nc1 [Compound 20d, 2-((4-(tert-Butyl)pyridin-2-yl)amino)-N-(2-(2-methyl-1H-indol-3-yl)ethyl)pyrimidine-5-carboxamide]
- Aqueous Solubility [2]: 5 µM

Structure (SMILES): CC(=O)c1cccc(Nc2ncc(C(=O)NCCc3c(C)[nH]c4ccccc34)cn2)n1 [Compound 20j, 2-((6-Acetylpyridin-2-yl)amino)-N-(2-(2-methyl-1H-indol-3-yl)ethyl)pyrimidine-5-carboxamide]
- Aqueous Solubility [2]: 5 µM

Structure (SMILES): Cc1[nH]c2ccccc2c1CCNC(=O)c1cnc(Nc2ccncc2)nc1 [Compound 20p, N-(2-(2-Methyl-1H-indol-3-yl)ethyl)-2-(pyridin-4-ylamino)pyrimidine-5-carboxamide]
- EP2 KB (human EP2 receptor): complete loss of potency
- Aqueous Solubility [2]: 38 µM

Structure (SMILES): Cc1[nH]c2ccccc2c1CCNC(=O)c1ccc(-c2ccccc2O)nc1 [Compound 8d, 6-(2-Hydroxyphenyl)-N-(2-(2-methyl-1H-indol-3-yl)ethyl)nicotinamide]
- Solubility in SGF [1]: 50^c μM
- Aqueous Solubility [2]: 8 µM
